# According to patent publication US12390437B2, “Itaconic acid derivatives and uses thereof intreating an inflammatory disease or a disease associated with an undesirable immune response” (Sitryx Therapeutics Limited, priority 2019, dated 2025):
# Structures can show the parent of a compound that is named as a salt.
# Tests used:
# [1] = tested on: IL-6 cytokine output from THP-1s; test: THP-1 AlphaLISA IL-6 cytokine assay; assay type: cell-based, human; conditions: Homo sapiens; PMA-differentiated THP-1 cells, LPS 24 hr then Nigericin 1 hour
# In short: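 AlphaLISA read-out of cytokine released into supernatants of differentiated THP-1 cells. Cells were PMA-treated for 72 h, exposed to compound for 30 min, stimulated with LPS for 24 h, then given nigericin for 1 h before harvest. IC50 values come from normalised concentration-response curves.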
# [2] = Mouse pharmacokinetic study, oral administration; assay type: in vivo; conditions: for concentration at 0.083 h / concentration at 0.25 h / concentration at 0.5 h / concentration at 1 h / concentration at 2 h / concentration at 4 h / concentration at 6 h / concentration at 8 h / concentration at 24 h: male, C57BL/6, mouse, plasma, po, 100 mg/kg, male C57BL/6 mice, oral gavage 100 mg/kg; for concentration at 0.083 h: read-out: Parent compound concentrations following oral administration, Time 0.083 h; for concentration at 0.25 h: read-out: Parent compound concentrations following oral administration, Time 0.25 h; for concentration at 0.5 h: read-out: Parent compound concentrations following oral administration, Time 0.5 h; for concentration at 1 h: read-out: Parent compound concentrations following oral administration, Time 1 h; for concentration at 2 h: read-out: Parent compound concentrations following oral administration, Time 2 h; for concentration at 4 h: read-out: Parent compound concentrations following oral administration, Time 4 h; for concentration at 6 h: read-out: Parent compound concentrations following oral administration, Time 6 h; for concentration at 8 h: read-out: Parent compound concentrations following oral administration, Time 8 h; for concentration at 24 h: read-out: Parent compound concentrations following oral administration, Time 24 h
# Description: Pharmacokinetic studies were carried out in 6-8-week-old male C57BL/6 mice having free access to food and water. Intravenous dosing was conducted at 10 mg/kg (5 mL/kg; vehicle: 10% DMSO-90% (25% HP-13-CD in water)) via tail vein injection, with sampling at 3 min, 8 min, 15 min, 30 min, 1, 2, 4, 6 and 8 hours, i.e., 9 time points in total (N=3/time point), using semi-serial bleeding for plasma. Oral compound administration, via gavage, was carried out at 100 mg/kg (10 mL/kg; vehicle: 5% DMSO-95% (0.5% HPMC+0.1% Tween 80 in water)), with sampling at 5 min, 15 min, 30 min, 1, 2, 4, 6, 8 and 24 hours, i.e., 9 time points in total (N=3/time point), using semi-serial bleeding for plasma.
# For both intravenous and oral routes, the mice were restrained manually at the designated time points, with ca. 110 μL of blood being taken into K2EDTA tubes via the facial vein. Blood samples were put on ice and centrifuged to obtain plasma samples from which the concentration at each time point was measured by LC-MS/MS.
# [3] = Mouse pharmacokinetic study, intravenous dosing; assay type: in vivo; conditions: 10 mg/kg i.v.; for concentration at 0.05 h / concentration at 0.133 h / concentration at 0.25 h / concentration at 0.5 h / concentration at 1 h / concentration at 2 h / concentration at 4 h / concentration at 6 h / concentration at 8 h: male, C57BL/6, mouse, iv, plasma, read-out: Parent compound concentration following intravenous administration
# In short: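 Male C57BL/6 mice (6-8 weeks, fed ad libitum); IV tail-vein 10 mg/kg in 10% DMSO/25% HP-β-CD, sampled 3 min–8 h; oral gavage 100 mg/kg in 5% DMSO/0.5% HPMC+0.1% Tween 80, sampled 5 min–24 h. N=3/time point, semi-serial facial-vein bleeds into K2EDTA; plasma levels by LC-MS/MS.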
# [4] = Hepatocyte stability assay (human); assay type: in vitro ADME; conditions: cryopreserved hepatocytes, 10 μM compound, 0.5×10^6 cells/mL, 60 minutes, read-out: T½
# From the text: (§1) Defrosted cryo-preserved hepatocytes (viability >70%) are used to determine the metabolic stability of a compound via calculation of intrinsic clearance (Clint; a measure of the removal of a compound from the liver in the absence of blood flow and cell binding). Clearance data are particularly important for in vitro work as they can be used in combination with in vivo data to predict the half-life and oral bioavailability of a drug.
# (§2) The metabolic stability in hepatocytes assay involves a time-dependent reaction using both positive and negative controls. The cells must be pre-incubated at 37° C. then spiked with test compound (and positive control); samples taken at pre-determined time intervals are analysed to monitor the change in concentration of the initial drug compound over 60 minutes. A buffer incubation reaction (with no hepatocytes present) acts as a negative control and two cocktail solutions, containing compounds with known high and low clearance values (verapamil/7-hydroxycoumarin and propranolol/diltiazem), act as positive controls. • 1. The assay is run with a cell concentration of 0.5×10^6 cells/mL in Leibovitz buffer. • 2. All compounds and controls are run in duplicate. • 3. Compound concentration is 10 μM. • 4. All compounds and controls are incubated with both cells and buffer to show turnover is due to hepatic metabolism. • 5. All wells on the incubation plate will have 326.7 μL of either cells or buffer added. • 6. Prior to assay, cell and buffer-only incubation plates are preincubated for 10 mins at 37° C. • 7. The assay is initiated by adding compounds, 3.3 μL of 1 mM in 10% DMSO-90% Buffer; final DMSO concentration is 0.1%. • 8. Samples are taken at regular timepoints (0, 5, 10, 20, 40, 60 min) until 60 mins. • 9. Sample volume is 40 μL and it is added to 160 μL of crash solvent (acetonitrile with internal standard) and stored on ice. • 10. At the end of the assay, the crash plates are centrifuged at 3500 rpm for 20 mins at 4° C. • 11. 80 μL of clear supernatant is removed and mixed with 80 μL of deionised water before being analysed by LC-MS/MS.
# (§3) Raw LC-MS/MS data are exported to, and analysed in, Microsoft Excel for determination of intrinsic clearance. The percentage remaining of a compound is monitored using the peak area of the initial concentration as 100%. Intrinsic clearance and half-life values are calculated using a graph of the natural log of percentage remaining versus the time of reaction in minutes. Half-life (min) and intrinsic clearance (Clint in μL min^−1 10^−6 cells) values are calculated using the gradient of the graph (the elimination rate constant, k) and Equations 1 and 2.
# hepatocytes = test: Hepatocyte stability assay (human); assay type: in vitro ADME; conditions: 10 μM compound, 0.5×10^6 cells/mL, 60 minutes
# From the text: as §1, §2, §3
SMILES,IC50 [1] [µM],concentration at 0.083 h [2] [ng/mL],concentration at 0.25 h [2] [ng/mL],concentration at 0.5 h [2] [ng/mL],concentration at 1 h [2] [ng/mL],concentration at 2 h [2] [ng/mL],concentration at 4 h [2] [ng/mL],concentration at 6 h [2] [ng/mL],concentration at 8 h [2] [ng/mL],concentration at 24 h [2] [ng/mL],concentration at 0.05 h [3] [ng/mL],concentration at 0.133 h [3] [ng/mL],concentration at 0.25 h [3] [ng/mL],concentration at 0.5 h [3] [ng/mL],concentration at 1 h [3] [ng/mL],concentration at 2 h [3] [ng/mL],concentration at 4 h [3] [ng/mL],concentration at 6 h [3] [ng/mL],concentration at 8 h [3] [ng/mL],also measured
"C=C(CC(=O)OCCCCCCCC)C(=O)OCCC(F)(F)F [Example 3, 4-octyl 1-(3,3,3-trifluoropropyl) 2-methylenesuccinate]",56.2,,,,,,,,,,,,,,,,,,,
"C=C(CC(=O)OCCCCCC)C(=O)OCC(=O)O [Example 94, 2-((4-(hexyloxy)-2-methylene-4-oxobutanoyl)oxy)acetic acid]",,27800,12600,8220,3110,2140,392,196,90,< 0.8,18000,6070,2440,550,42,1.9,1.4,< 0.8,< 0.8,half-life at 10 μM [4]: 1.42 h; CIint (μL min^−1 10^−6 cells) (hepatocytes): 16 μL min^−1 10^−6 cells
"C=C(CC(=O)O[C@H](CC)CCCCC)C(=O)OCC(=O)O [Example 178, (R)-2-(2-methylene-4-(octan-3-yloxy)-4-oxobutanoyloxy)acetic acid]",,67100,27100,27900,11000,3660,1460,2240,639,< 4,33400,15500,5680,2850,594,61,8.2,< 4,< 4,
"COC(=O)/C=C/C(=O)OC [dimethyl fumarate, reference compound]",9.3,,,,,,,,,,,,,,,,,,,
"C=C(CC(=O)OC)C(=O)OC [dimethyl itaconate, reference compound]",100,< 24,< 24,< 24,< 24,< 24,< 24,< 24,< 24,< 24,874,< 24,< 24,< 24,< 24,< 24,< 24,< 24,< 24,"Quantifiability in plasma following oral administration ([2]; mouse, 100 mg/kg oral): below the limit of quantification at all timepoints; Quantifiability in plasma following intravenous dosing ([3]; mouse): only quantifiable at one timepoint"

# The remaining compounds from weak to strong by IC50 [1], led by results:
IC50 [1] [µM],concentration at 0.083 h [2] [ng/mL],concentration at 0.25 h [2] [ng/mL],concentration at 0.5 h [2] [ng/mL],concentration at 1 h [2] [ng/mL],concentration at 2 h [2] [ng/mL],concentration at 4 h [2] [ng/mL],concentration at 6 h [2] [ng/mL],concentration at 8 h [2] [ng/mL],concentration at 24 h [2] [ng/mL],concentration at 0.05 h [3] [ng/mL],concentration at 0.133 h [3] [ng/mL],concentration at 0.25 h [3] [ng/mL],concentration at 0.5 h [3] [ng/mL],concentration at 1 h [3] [ng/mL],concentration at 2 h [3] [ng/mL],concentration at 4 h [3] [ng/mL],concentration at 6 h [3] [ng/mL],concentration at 8 h [3] [ng/mL],SMILES,also measured
6,,,,,,,,,,,,,,,,,,,"C=C(CC(=O)OCCCCCCCC)C(=O)OCCC#N [Example 1, 1-(2-cyanoethyl) 4-octyl 2-methylenesuccinate]",
3.6,,,,,,,,,,,,,,,,,,,"C=C(CC(=O)OCCCCCCCC)C(=O)OC1COC1 [Example 4, 4-octyl 1-(oxetan-3-yl) 2-methylenesuccinate]",
2.9,,,,,,,,,,,,,,,,,,,"C=C(CC(=O)OCCCCCCCC)C(=O)OCCS(C)(=O)=O [Example 2, 1-(2-(methylsulfonyl)ethyl) 4-octyl 2-methylenesuccinate]",
2.2,,,,,,,,,,,,,,,,,,,"C=C(CC(=O)OCCCCCCCC)C(=O)OCCN1C(=O)CCC1=O [Example 9, 1-(2-(2,5-dioxopyrrolidin-1-yl)ethyl) 4-octyl 2-methylenesuccinate]",
